Experimental data reported in patent US12490739B2, “Synergistically effective fungicide composition comprising choline phosphonate and at least one additional fungicide” (BELCHIM CROP PROTECTION NV, priority 2019, dated 2025).

Columns and labels:
Assay type in all cases: in vivo
[1] = tested on: Venturia inaequalis; test: Example 5 field trials, apple (Malus domestica var. Golden delicious) infected with scab; settings: 60 g a.c./ha
[2] = tested on: Plasmopara viticola; test: Example 7 field trial, Vitis vinifera var. Merlot infected with downy mildew, France; settings: 130 g a.c./ha
[3] = tested on: Uncinula necator; test: Example 12 field trial, Vitis vinifera var. Carignan infected with powdery mildew, France; settings: 2320 g a.c./ha
[4] = tested on: Sphaerotheca fuliginea; test: Example 3 field trial, cucumber (Cucumis sativus var. Bosco) infected with powdery mildew, Italy; settings: 2080 g a.c./ha
[5] = tested on: Podosphaera leucotricha; test: Example 13 field trials, apple (Malus domestica var. Gold Rush, var. Morgenduft Dallago) infected with powdery mildew; settings: 2640 g a.c./ha
[6] = tested on: Plasmopara viticola; test: Example 6 field trials, Vitis vinifera infected with downy mildew; settings: 120 g a.c./ha

Cc1cc(OC(C)C)ccc1C(=O)C(C)(C)NC(=O)c1sccc1C [ISO, N-[1,1-dimethyl-2-(4-isopropoxy-o-tolyl)-2-oxoethyl]-3-methylthiophene-2-carboxamide]
ISO f.e. (%) ([1]; PESINC, location 1 (France), 6 DA-A4, BBCH 72): 13.3% | ISO f.e. (%) ([1]; PESINC, location 2 (Italy), 4 DA-A11, BBCH 75): 4.1% | ISO f.e. (%) ([1]; PESINC, location 2 (Italy), 6 DA-A9, BBCH 74): 12.1% | ISO f.e. (%) ([1]; PESINC, location 2 (Italy), 6 DA-A13, BBCH 77): 5.5% | ISO f.e. (%) ([1]; PESINC, location 2 (Italy), 7 DA-A6, BBCH 72): 16.8% | ISO f.e. (%) ([1]; PESINC, location 3 (Belgium), 31 DA-A9, BBCH 73): 8.7% | ISO f.e. (%) ([1]; PESINC, location 3 (Belgium), 80 DA-A9, BBCH 73): 2.2% | ISO f.e. (%) ([1]; PESSEV, location 2 (Italy), 4 DA-A11, BBCH 75): 22.6% | ISO f.e. (%) ([1]; PESSEV, location 2 (Italy), 6 DA-A9, BBCH 74): 25.3% | ISO f.e. (%) ([1]; PESSEV, location 2 (Italy), 6 DA-A13, BBCH 77): 27.7% | ISO f.e. (%) ([1]; PESSEV, location 2 (Italy), 7 DA-A6, BBCH 72): 32.9%

O=C(NCc1ncc(C(F)(F)F)cc1Cl)c1c(Cl)cccc1Cl [FLU, 2,6-dichloro-N-[[3-chloro-5-(trifluoromethyl)pyridin-2-yl]methyl]benzamide]
FLU f.e. (%) ([2]; PESINC, 50 bunches, 0 DA-A3, BBCH 73): 84.4% | FLU f.e. (%) ([2]; PESINC, 50 bunches, 0 DA-A5, BBCH 77): 37.5% | FLU f.e. (%) ([2]; PESINC, 50 bunches, 9 DA-A6, BBCH 83): 14.5% | FLU f.e. (%) ([2]; PESINC, 100 leaves, 0 DA-A3, BBCH 73): 62.3% | FLU f.e. (%) ([2]; PESINC, 100 leaves, 0 DA-A5, BBCH 77): 47.8% | FLU f.e. (%) ([2]; PESINC, 100 leaves, 9 DA-A6, BBCH 83): 32.2% | FLU f.e. (%) ([2]; PESSEV, 50 bunches, 0 DA-A5, BBCH 77): 83.6% | FLU f.e. (%) ([2]; PESSEV, 50 bunches, 9 DA-A6, BBCH 83): 46.8%

S1SSSSSSS1 [S, sulphur]
S f.e. (%) ([3]; PESINC, 50 bunches, 14 DA-A3, BBCH 77): 5.1% | S f.e. (%) ([3]; PESINC, 50 bunches, 14 DA-A3, BBCH 77, second listing (r34)): 1.2% | S f.e. (%) ([3]; PESINC, 50 bunches, 14 DA-A5, BBCH 83): 37.6% | S f.e. (%) ([3]; PESINC, 50 bunches, 14 DA-A5, BBCH 83, second listing (r36)): 0% | S f.e. (%) ([3]; PESINC, 100 leaves, 14 DA-A3, BBCH 77): 42.8% | S f.e. (%) ([3]; PESINC, 100 leaves, 14 DA-A3, BBCH 77, second listing (r32)): 6.3% | S f.e. (%) ([3]; PESSEV, 50 bunches, 14 DA-A3, BBCH 77): 50.8% | S f.e. (%) ([3]; PESSEV, 50 bunches, 14 DA-A3, BBCH 77, second listing (r28)): 6.0% | S f.e. (%) ([3]; PESSEV, 50 bunches, 14 DA-A5, BBCH 83): 14.2% | S f.e. (%) ([3]; PESSEV, 50 bunches, 14 DA-A5, BBCH 83, second listing (r30)): 18.9% | S f.e. (%) ([3]; PESSEV, 100 leaves, 14 DA-A3, BBCH 77): 18.7% | S f.e. (%) ([3]; PESSEV, 100 leaves, 14 DA-A3, BBCH 77, second listing (r26)): 13.9% | S f.e. (%) ([4]; PESINC curative, 7 DA-A2, BBCH 73): 85.1% | S f.e. (%) ([4]; PESINC curative, 7 DA-A3, BBCH 76): 87.5% | S f.e. (%) ([4]; PESINC curative, 7 DA-A4, BBCH 77): 77.5% | S f.e. (%) ([4]; PESINC curative, 14 DA-A4, BBCH 78): 58.9% | S f.e. (%) ([4]; PESINC, 7 DA-A2, BBCH 73): 88.1% | S f.e. (%) ([4]; PESINC, 7 DA-A3, BBCH 76): 95% | S f.e. (%) ([4]; PESINC, 7 DA-A4, BBCH 77): 85.0% | S f.e. (%) ([4]; PESINC, 14 DA-A4, BBCH 78): 75.2% | S f.e. (%) ([4]; PESINC, 21 DA-A4, BBCH 79): 69.7% | S f.e. (%) ([4]; PESSEV curative, 7 DA-A2, BBCH 73): 93.6% | S f.e. (%) ([4]; PESSEV curative, 7 DA-A3, BBCH 76): 96% | S f.e. (%) ([4]; PESSEV curative, 7 DA-A4, BBCH 77): 95% | S f.e. (%) ([4]; PESSEV curative, 14 DA-A4, BBCH 78): 93.4% | S f.e. (%) ([4]; PESSEV, 7 DA-A2, BBCH 73): 96.7% | S f.e. (%) ([4]; PESSEV, 7 DA-A4, BBCH 77): 97.6% | S f.e. (%) ([4]; PESSEV, 14 DA-A4, BBCH 78): 96.3% | S f.e. (%) ([4]; PESSEV, 21 DA-A4, BBCH 79): 96.9% | S f.e. (%) ([5]; PESINC, location 1 (France), 20 shoots, 7 DA-A5, BBCH 71): 80.0% | S f.e. (%) ([5]; PESINC, location 1 (France), 100 leaves, 5 DA-A8, BBCH 74): 88.1% | S f.e. (%) ([5]; PESINC, location 1 (France), 100 leaves, 6 DA-A6, BBCH 74): 59.1% | S f.e. (%) ([5]; PESINC, location 1 (France), 100 leaves, 15 DA-A8, BBCH 76): 80.7% | S f.e. (%) ([5]; PESINC, location 2 (Italy), 5 leaves, 5 DA-A6, BBCH 74): 63.9% | S f.e. (%) ([5]; PESINC, location 2 (Italy), 40 shoots, 2 DA-A10, BBCH 74): 62.4% | S f.e. (%) ([5]; PESINC, location 2 (Italy), 40 shoots, 6 DA-A5, BBCH 71): 57.8% | S f.e. (%) ([5]; PESINC, location 2 (Italy), 40 shoots, 6 DA-A11, BBCH 74): 59.4% | S f.e. (%) ([5]; PESSEV, location 1 (France), 100 leaves, 6 DA-A6, BBCH 74): 64.1% | S f.e. (%) ([5]; PESSEV, location 1 (France), 100 leaves, 15 DA-A8, BBCH 76): 88.2% | S f.e. (%) ([5]; PESSEV, location 2 (Italy), 5 leaves, 2 DA-A10, BBCH 74): 82.1% | S f.e. (%) ([5]; PESSEV, location 2 (Italy), 5 leaves, 5 DA-A6, BBCH 74): 72.7% | S f.e. (%) ([5]; PESSEV, location 2 (Italy), 5 leaves, 6 DA-A11, BBCH 74): 84.4%

CCC(C)(NC(=O)c1cc(Cl)c(C)c(Cl)c1)C(=O)CCl (racemic) [ZOX, (RS)-3,5-dichloro-N-(3-chloro-1-ethyl-1-methyl-2-oxopropyl)-ptoluamide]
ZOX f.e. (%) ([6]; PESINC, location 1 (France, Negrette), 50 bunches, 1 DA-A6, BBCH 69): 73.0% | ZOX f.e. (%) ([6]; PESINC, location 1 (France, Negrette), 50 bunches, 1 DA-A8, BBCH 75): 18.0% | ZOX f.e. (%) ([6]; PESINC, location 1 (France, Negrette), 50 bunches, 16 DA-A9, BBCH 81): 1.0% | ZOX f.e. (%) ([6]; PESINC, location 2 (France, Grenache), 50 bunches, 9 DA-A4, BBCH 71): 10.0% | ZOX f.e. (%) ([6]; PESINC, location 2 (France, Grenache), 50 bunches, 9 DA-A4, BBCH 77): 0.0% | ZOX f.e. (%) ([6]; PESINC, location 2 (France, Grenache), 100 leaves, 6 DA-A5, BBCH 77): 0.0% | ZOX f.e. (%) ([6]; PESINC, location 2 (France, Grenache), 100 leaves, 9 DA-A4, BBCH 71): 22.8% | ZOX f.e. (%) ([6]; PESINC, location 3 (Germany, Mueller-Thurgau), 50 bunches, 11 DA-A4, BBCH 75): 48.8% | ZOX f.e. (%) ([6]; PESINC, location 3 (Germany, Mueller-Thurgau), 100 leaves, 7 DA-A8, BBCH 83): 16.0% | ZOX f.e. (%) ([6]; PESINC, location 3 (Germany, Mueller-Thurgau), 100 leaves, 13 DA-A6, BBCH 83): 18.7% | ZOX f.e. (%) ([6]; PESSEV, location 1 (France, Negrette), 50 bunches, 1 DA-A8, BBCH 75): 75.2% | ZOX f.e. (%) ([6]; PESSEV, location 1 (France, Negrette), 50 bunches, 16 DA-A9, BBCH 81): 51.7% | ZOX f.e. (%) ([6]; PESSEV, location 2 (France, Grenache), 50 bunches, 8 DA-A5, BBCH 77): 21.4% | ZOX f.e. (%) ([6]; PESSEV, location 2 (France, Grenache), 50 bunches, 9 DA-A4, BBCH 71): 81.3% | ZOX f.e. (%) ([6]; PESSEV, location 2 (France, Grenache), 50 bunches, 9 DA-A6, BBCH 79): 1.3% | ZOX f.e. (%) ([6]; PESSEV, location 2 (France, Grenache), 100 leaves, 6 DA-A5, BBCH 77): 15.1% | ZOX f.e. (%) ([6]; PESSEV, location 2 (France, Grenache), 100 leaves, 9 DA-A4, BBCH 71): 67.7% | ZOX f.e. (%) ([6]; PESSEV, location 3 (Germany, Mueller-Thurgau), 50 bunches, 7 DA-A8, BBCH 83): 48.9% | ZOX f.e. (%) ([6]; PESSEV, location 3 (Germany, Mueller-Thurgau), 50 bunches, 11 DA-A4, BBCH 75): 80.2% | ZOX f.e. (%) ([6]; PESSEV, location 3 (Germany, Mueller-Thurgau), 50 bunches, 13 DA-A6, BBCH 83): 49.2% | ZOX f.e. (%) ([6]; PESSEV, location 3 (Germany, Mueller-Thurgau), 100 leaves, 13 DA-A6, BBCH 83): 52.1%
